What all share (assay type): physicochemical
The nature of one series: water solubility. The settings on record: over relevant temperature ranges; compared with modification A. From the text: (§1) The resulting change of particle sizes could lead to a change of the stability of the formulated suspension.
The nature of series [1]: thermodynamic stability (DSC, solubility tests and other experiments). The settings on record: compared with modification A. The protocol: as §1
Characteristic for modification C is also the thermogram in differential scanning calorimetry (“DSC”) (see FIG. 3). It has an endothermic peak typically in the range from 130° C. to 142° C., but this will depend on purity. For example, crystal modification C in pure form has typically a peak temperature of 141° C. and an endothermic signal typically around 83 J/g. This thermogram is characteristically different from the thermograms of modifications A and B. Modification A has an endothermic peak at about 112° C. and an endothermic signal of 76; modification B has a peak at about 128° C. and a signal of 90 J/g (see PCT/EP2006/00898, FIGS. 5-6). All measurements were carried out on a Metier Toledo 820 DSC in a closed, but not sealed, pan with a heating rate of 10 K/minute. The typical sample quantity is about 5 mg.

Series [2] is described as follows: storage stability in aqueous suspensions and in solid form under humid conditions. Particulars: aqueous suspensions (such as SC-formulations) and storage in solid form under humid conditions; compared with amorphous material or modification I.

For the compound `CC(C)C1C2CCC1c1c(NC(=O)c3cn(C)nc3C(F)F)cccc12` (mixture of isomers) [modification C, racemic syn-3-difluoromethyl-1-methyl-1H-pyrazole-4-carboxylic acid (9-isopropyl-1,2,3,4-tetrahydro-1,4-methano-naphthalen-5-yl)-amide], in the series “water solubility”, the water solubility entry is “lower than the water solubility of modification A”. For the same compound, the thermodynamic stability result in series [1] is given as “substantially better thermodynamic stability than modification A”.

Consider `CC(C)C1C2CCC1c1c(NC(=O)c3cn(C)nc3C(F)F)cccc12` (mixture of isomers) [monohydrate in form A, racemic anti-3-difluoromethyl-1-methyl-1H-pyrazole-4-carboxylic acid (9-isopropyl-1,2,3,4-tetrahydro-1,4-methano-naphthalen-5-yl)-amide], for which the storage stability entry in series [2] is “much more stable under those circumstances compared with amorphous material or with the modification I”.
